Assay results reported in the supplement of paper PMC9663587.

Columns and labels:
Test in all cases: GR value, 72 h; higher = faster growth (1 = untreated, <0 = killing);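 further: breast cancer and non-malignant breast epithelial lines, nine half-log doses, viable cells counted by Hoechst and LIVE/DEAD dye imaging versus time-zero plates and DMSO controls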
[1] = compound: CN(C)C/C=C/C(=O)Nc1ccc(O[C@@H]2CCC[C@@H](Nc3ncc(Cl)c(-c4c[nH]c5ccccc45)n3)C2)cc1 [BSJ-01-175]
[2] = compound: NC(=O)Nc1cc(-c2cccc(F)c2)sc1C(=O)N[C@H]1CCCNC1 [AZD7762]
[3] = compound: Cc1nn(C)c(COc2ccc(N3CCN(S(=O)(=O)N(C)C)CC3)cc2)c1-c1cccc2c(CCCOc3cccc4ccccc34)c(C(=O)O)n(CCN3CCOCC3)c12
[4] = compound: NC1(C(=O)N[C@@H](CCO)c2ccc(Cl)cc2)CCN(c2nc[nH]c3nccc2-3)CC1 [AZD5363]
[5] = compound: COc1cc2c(Oc3ccc4[nH]c(C)cc4c3F)ncnc2cc1OCCCN1CCCC1 [Cediranib/AZD2171]
[6] = compound: CN1CCN(CC1)C2=CC(=C(C=C2)NC3=NC=C4C(=N3)N(C5=CC=CC=C5C(=O)N4CC(F)(F)F)C)OC [FMF-03-146-1]
[7] = compound: Cc1cc(Nc2ncc(Cl)c(Nc3ccccc3S(=O)(=O)C(C)C)n2)c(OC(C)C)cc1C1CCNCC1 [Ceritinib/LDK378]
[8] = compound: CN1CCN(CCOc2cc(OC3CCOCC3)c3c(Nc4c(Cl)ccc5c4OCO5)ncnc3c2)CC1 [Saracatinib/AZD0530]
[9] = compound: CNC(=O)c1cccc(-c2ccc3c(N4CCOC[C@@H]4C)nc(N4CCOC[C@@H]4C)nc3n2)c1 [AZD2014]
[10] = compound: CO[C@H]1C[C@@H]2CC[C@@H](C)[C@@](O)(O2)C(=O)C(=O)N2CCCC[C@H]2C(=O)O[C@H]([C@H](C)C[C@@H]2CC[C@@H](OCCO)[C@H](OC)C2)CC(=O)[C@H](C)/C=C(\C)[C@@H](O)[C@@H](OC)C(=O)[C@H](C)C[C@H](C)/C=C/C=C/C=C/1C [Everolimus]
[11] = compound: CC(=O)O[C@H]1C(=O)[C@@]2(C)[C@H]([C@H](OC(=O)c3ccccc3)[C@]3(O)C[C@H](OC(=O)[C@H](O)[C@@H](NC(=O)c4ccccc4)c4ccccc4)C(C)=C1C3(C)C)[C@]1(OC(C)=O)CO[C@@H]1C[C@@H]2O [Paclitaxel]

## AU565
[1]; 0.001 µM
  GR value: 0.954 GR
[1]; 0.003162 µM
  GR value: 0.82 GR
[1]; 0.01 µM
  GR value: 0.24 GR
[1]; 0.03162 µM
  GR value: -0.144 GR
[1]; 0.1 µM
  GR value: -0.164 GR
[1]; 0.3162 µM
  GR value: -0.381 GR
[1]; 1 µM
  GR value: -0.45 GR
[1]; 3.162 µM
  GR value: -0.505 GR
[1]; 10 µM
  GR value: -0.777 GR
[2]; 0.001 µM
  GR value: 1.01 GR
[2]; 0.003162 µM
  GR value: 1.01 GR
[2]; 0.01 µM
  GR value: 1.08 GR
[2]; 0.03162 µM
  GR value: 1.03 GR
[2]; 0.1 µM
  GR value: 0.976 GR
[2]; 0.3162 µM
  GR value: 0.756 GR
[2]; 1 µM
  GR value: 0.41 GR
[2]; 3.162 µM
  GR value: -0.179 GR
[2]; 10 µM
  GR value: -0.57 GR
[3]; 0.001 µM
  GR value: 1.03 GR
[3]; 0.003162 µM
  GR value: 1.04 GR
[3]; 0.01 µM
  GR value: 1.09 GR
[3]; 0.03162 µM
  GR value: 1.03 GR
[3]; 0.1 µM
  GR value: 1.06 GR
[3]; 0.3162 µM
  GR value: 1.05 GR
[3]; 1 µM
  GR value: 1.03 GR
[3]; 3.162 µM
  GR value: 1.05 GR
[3]; 10 µM
  GR value: 0.613 GR
[4]; 0.001 µM
  GR value: 1.15 GR
[4]; 0.003162 µM
  GR value: 0.991 GR
[4]; 0.01 µM
  GR value: 0.884 GR
[4]; 0.03162 µM
  GR value: 0.793 GR
[4]; 0.1 µM
  GR value: 0.786 GR
[4]; 0.3162 µM
  GR value: 0.717 GR
[4]; 1 µM
  GR value: 0.655 GR
[4]; 3.162 µM
  GR value: 0.682 GR
[4]; 10 µM
  GR value: 0.399 GR
[5]; 0.001 µM
  GR value: 1.04 GR
[5]; 0.003162 µM
  GR value: 0.989 GR
[5]; 0.01 µM
  GR value: 1.07 GR
[5]; 0.03162 µM
  GR value: 1.07 GR
[5]; 0.1 µM
  GR value: 1.06 GR
[5]; 0.3162 µM
  GR value: 1.22 GR
[5]; 1 µM
  GR value: 1.2 GR
[5]; 3.162 µM
  GR value: 1.08 GR
[5]; 10 µM
  GR value: 0.941 GR
[6]; 0.001 µM
  GR value: 0.955 GR
[6]; 0.003162 µM
  GR value: 1.02 GR
[6]; 0.01 µM
  GR value: 1.03 GR
[6]; 0.03162 µM
  GR value: 1 GR
[6]; 0.1 µM
  GR value: 0.928 GR
[6]; 0.3162 µM
  GR value: 0.924 GR
[6]; 1 µM
  GR value: 0.874 GR
[6]; 3.162 µM
  GR value: 0.894 GR
[6]; 10 µM
  GR value: 0.695 GR
[7]; 0.001 µM
  GR value: 1.01 GR
[7]; 0.003162 µM
  GR value: 0.971 GR
[7]; 0.01 µM
  GR value: 1 GR
[7]; 0.03162 µM
  GR value: 1.01 GR
[7]; 0.1 µM
  GR value: 0.983 GR
[7]; 0.3162 µM
  GR value: 0.993 GR
[7]; 1 µM
  GR value: 0.887 GR
[7]; 3.162 µM
  GR value: 0.479 GR
[8]; 0.001 µM
  GR value: 1 GR
[8]; 0.003162 µM
  GR value: 1.03 GR
[8]; 0.01 µM
  GR value: 0.984 GR
[8]; 0.03162 µM
  GR value: 1.03 GR
[8]; 0.1 µM
  GR value: 0.952 GR
[8]; 0.3162 µM
  GR value: 0.942 GR
[8]; 1 µM
  GR value: 0.86 GR
[8]; 3.162 µM
  GR value: 0.671 GR
[8]; 10 µM
  GR value: 0.162 GR
[9]; 0.001 µM
  GR value: 0.592 GR
[9]; 0.003162 µM
  GR value: 0.509 GR
[9]; 0.01 µM
  GR value: 0.415 GR
[9]; 0.03162 µM
  GR value: 0.249 GR
[9]; 0.1 µM
  GR value: 0.219 GR
[9]; 0.3162 µM
  GR value: 0.149 GR
[9]; 1 µM
  GR value: 0.106 GR
[9]; 3.162 µM
  GR value: -0.0159 GR
[9]; 10 µM
  GR value: -0.0097 GR
[10]; 0.001 µM
  GR value: 0.523 GR
[10]; 0.003162 µM
  GR value: 0.451 GR
[10]; 0.01 µM
  GR value: 0.429 GR
[10]; 0.03162 µM
  GR value: 0.494 GR
[10]; 0.1 µM
  GR value: 0.396 GR
[10]; 0.3162 µM
  GR value: 0.509 GR
[10]; 1 µM
  GR value: 0.408 GR
[10]; 3.162 µM
  GR value: 0.454 GR
[10]; 10 µM
  GR value: 0.398 GR
[11]; 0.0001 µM
  GR value: 1.05 GR
[11]; 0.0003162 µM
  GR value: 1.1 GR
[11]; 0.001 µM
  GR value: 0.919 GR
[11]; 0.003162 µM
  GR value: -0.244 GR
[11]; 0.01 µM
  GR value: -0.459 GR
[11]; 0.03162 µM
  GR value: -0.515 GR
[11]; 0.1 µM
  GR value: -0.482 GR
[11]; 0.3162 µM
  GR value: -0.467 GR
[11]; 1 µM
  GR value: -0.475 GR
